Our source for the IC50 values is BindingDB's records for patent US20250313563 (The Broad Institute, 2025).

Test [1] concerns the target Glycogen synthase kinase-3 alpha (Homo sapiens, UniProt P49840). The experiment in a line: TR-FRET Assay. On the procedure:
(§1) The assay was performed in a white, 384 well, low volume, flat bottom plate (Grenier). […] The kinase activity was quenched with 2 μL of 250 mM EDTA. A 10 μL volume of 40 nM Strepavidin-d2, 2 nM Tb2+-pSer641 antibody in TR-FRET Detection Buffer (Invitrogen) was then added.

Test [2] has as its target Glycogen synthase kinase-3 beta (Homo sapiens, UniProt P49841). The experiment in a line: TR-FRET Assay. Here is the method: as §1

Values joined by “and” are separate entries in the source; they are usually repeats but may differ in a detail not shown here. Identical values can stand only once. A value given as a limit tells only on which side of the number the result lay.

Chain of Glycogen synthase kinase-3 alpha (P49840 whole entry): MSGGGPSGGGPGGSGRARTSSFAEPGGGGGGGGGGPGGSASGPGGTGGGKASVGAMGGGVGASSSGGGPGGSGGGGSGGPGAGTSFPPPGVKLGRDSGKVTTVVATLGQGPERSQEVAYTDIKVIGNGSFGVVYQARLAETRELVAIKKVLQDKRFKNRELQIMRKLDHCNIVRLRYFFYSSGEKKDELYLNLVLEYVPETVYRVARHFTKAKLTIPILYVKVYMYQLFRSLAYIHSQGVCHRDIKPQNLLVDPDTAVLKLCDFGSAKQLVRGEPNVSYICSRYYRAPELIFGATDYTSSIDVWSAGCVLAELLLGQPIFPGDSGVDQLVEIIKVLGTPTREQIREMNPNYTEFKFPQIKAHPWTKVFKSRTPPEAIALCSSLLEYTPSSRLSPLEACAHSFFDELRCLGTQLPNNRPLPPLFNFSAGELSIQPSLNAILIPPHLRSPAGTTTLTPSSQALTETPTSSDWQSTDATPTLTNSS
Chain of Glycogen synthase kinase-3 beta (P49841 whole entry): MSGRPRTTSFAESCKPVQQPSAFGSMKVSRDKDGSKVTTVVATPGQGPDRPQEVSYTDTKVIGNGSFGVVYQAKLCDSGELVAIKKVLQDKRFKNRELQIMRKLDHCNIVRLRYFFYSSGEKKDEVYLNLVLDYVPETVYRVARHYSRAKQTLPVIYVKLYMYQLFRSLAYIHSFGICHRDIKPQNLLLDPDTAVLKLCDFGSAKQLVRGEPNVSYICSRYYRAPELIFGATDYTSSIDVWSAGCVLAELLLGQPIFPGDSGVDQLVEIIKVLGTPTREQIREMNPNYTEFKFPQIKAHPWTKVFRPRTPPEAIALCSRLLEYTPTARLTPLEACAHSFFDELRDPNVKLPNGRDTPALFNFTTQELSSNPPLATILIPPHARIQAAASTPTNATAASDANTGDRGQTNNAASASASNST

On to `CC[C@@]1(c2cccc(-c3cnnc(C)c3)c2)C2=CN=NC2NC2=C1C(=O)CC(C)(C)C2` (stereo partly specified) [US20250313563, Compound 943994], for which the results for the IC50 in test [1] and in test [2] were 100 to 1000 nM and 1000 to 5000 nM, respectively.
For `CCC1(c2cccc(Br)c2)C2=C(CC(C)CC2=O)NC2N=NC(C(F)(F)F)=C21` (stereo unspecified) [US20250313563, Compound 826715] the same measures were under 100 nM and under 100 nM.
With `CC[C@]1(c2cccc(Br)c2)C2=CN=NC2NC2=C1C(=O)CC(C)(C)C2` (stereo partly specified) [US20250313563, Compound 790733], the figures for the IC50 in test [1] and in test [2] were 100 to 1000 nM and 1000 to 5000 nM, respectively.
The like results for `CCC1(c2cccc(N(CCOC)C(C)=O)c2)C2=CN=NC2NC2=C1C(=O)CC(C)(C)C2` (stereo unspecified) [US20250313563, Compound 893306] were, in that order, under 100 nM and under 100 nM.
For `CCC1(c2cccc(N(C)C(=O)CCc3ccccc3)c2)C2=CN=NC2NC2=C1C(=O)CC(C)(C)C2` (stereo unspecified) [US20250313563, Compound 912066] the same measures were under 100 nM and 100 to 1000 nM.
The like results for `CC[C@@]1(c2cccc(-c3cc(C(C)(C)C)nn3C)c2)C2=CN=NC2NC2=C1C(=O)NC(C)(C)C2` (stereo partly specified) [US20250313563, Compound 951843] were, in that order, 100 to 1000 nM and over 5000 nM.
Consider `CCC1(c2cccc(N3CCOCC3)c2)C2=C(CC(C)(C)CC2=O)NC2N=NC(C(F)(F)F)=C21` (stereo unspecified) [US20250313563, Compound 810507], for which the IC50 in test [1] and in test [2] was under 100 nM throughout.
On to `CC1(C)CC(=O)C2=C(C1)NC1=C(CN=N1)[C@@]21COC2(CN(C(=O)C(C)(F)F)C2)C1` [US20250313563, Compound 947839], for which the IC50 in test [1] is under 100 nM; in test [2], 100 to 1000 nM.
The like results for `CC1(C)CC(=O)C2=C(C1)NC1=C(CN=N1)C21COC2(CN(C(=O)C(F)F)C2)C1` (stereo unspecified) [US20250313563, Compound 947485] were, in that order, under 100 nM and under 100 nM.
Regarding `CC1(C)CC(=O)C2=C(C1)NC1=C(CN=N1)C21CCN(S(=O)(=O)c2ccccc2C(F)F)CC1` [US20250313563, Compound 945657], the IC50 in test [1] is < 100 nM and 100 to 1000 nM; in test [2], 100 to 1000 nM and 1000 to 5000 nM.
Consider `CCC1(c2cccc(C)c2)C2=C(N=NC2)NC2=C1C(=O)CC1(CCCC1)C2` (stereo unspecified) [US20250313563, Compound 789565], for which the 50% inhibitory concentration (IC50) is under 100 nM in test [1] and 100 to 1000 nM in test [2].
The like results for `CC[C@@]1(c2cccc(-c3ccnc(OC)c3Cl)c2)C2=CN=NC2NC2=C1C(=O)NC(C)(C)C2` (stereo partly specified) [US20250313563, Compound 952754] were, in that order, under 100 nM and 100 to 1000 nM.
As to `CC[C@@]1(c2ccccc2)C2=CN=NC2NC2=C1C(=O)C[C@]1(CCNC1=O)C2` (stereo partly specified) [US20250313563, Compound 950160], the values for the IC50 in test [1] and in test [2] were 1000 to 5000 nM and over 5000 nM, respectively.
The like results for `CC[C@@]1(c2cccc(N3CCCC[C@H]3C)c2)C2=CN=NC2NC2=C1C(=O)CC(C)(C)C2` (stereo partly specified) [US20250313563, Compound 917210] were, in that order, over 5000 nM and over 5000 nM.
For `CC[C@]1(c2cccc(N3CCOCC3)c2)C2=CN=NC2NC2=C1C(=O)CC(C)(C)C2` (stereo partly specified) [US20250313563, Compound 810364] the same measures were over 5000 nM and over 5000 nM.
As to `CC[C@@]1(c2cccc(-c3cnn(C)c3)c2)C2=CN=NC2NC2=C1C(=O)C[C@H](C)C2` (stereo partly specified) [US20250313563, Compound 823724], the values for the IC50 in test [1] and in test [2] were 100 to 1000 nM and 1000 to 5000 nM, respectively.
The like results for `CC[C@]1(c2cccc(-c3ccnn3C)c2)C2=CN=NC2NC2=C1C(=O)N[C@@]1(CCOC1)C2` (stereo partly specified) [US20250313563, Compound 948017] were, in that order, under 100 nM and under 100 nM.
Consider `CC(C)(C)CC1=C2C(N=N1)NC1=C(C(=O)CC(C)(C)C1)C21CCCc2ccccc21` (stereo unspecified) [US20250313563, Compound 810495], for which the 50% inhibitory concentration (IC50) is 100 to 1000 nM in test [1] and under 100 nM in test [2].
